According to patent publication EP4806912A1, “DUAL AGONIST COMPOUND” (Chengdu Aoda Biotechnology Co., Ltd, priority 2023, dated 2025):
pEC50: −log10 of the molar value.

What was measured:
[1] = biological target: T1, GLP-1R (Homo sapiens, UniProt P43220); test: GLP-1 activity test (cAMP, chemiluminescence, CHO-K1 cell line stably expressing GLP-1R); assay type: cell-based; conditions: relative luminescence units, read-out: GLP-1 activity [EC50(pmol)]
T1 construct: expressed in transfected cells; host or cells: CHO-K1
Method: (§1) Upon stimulation by a specific agonist, GLP-1R activates the intracellular adenylate cyclase signaling pathway, resulting in an increase in cAMP levels and ultimately leading to insulin production and secretion. A cell line stably transfected with GLP-1R was stimulated with test compounds, thereby rapidly increasing intracellular cAMP levels. The relative luminescence units (RLU) of cells stimulated at various concentrations were measured by a chemiluminescence method, and the EC50 value of the agonist was calculated accordingly. This activity test method is currently a commonly used method for evaluating GLP-1 receptor agonist activity both domestically and internationally.
A CHO-K1 cell line stably expressing GLP-1R was used. The stable cells were stimulated with agonists at different concentrations, and the relative luminescence units after stimulation at each concentration were measured to calculate the EC50 value of the agonist.

[2] = biological target: T2, GCG-R (Homo sapiens, UniProt P47871); test: GCG activity test (cAMP, chemiluminescence, CHO-K1 cell line stably expressing GCG-R); assay type: cell-based; conditions: relative luminescence units, read-out: GCG activity [EC50(nmol)]
T2 construct: expressed in transfected cells; host or cells: CHO-K1
Method: as §1, with “agonist, GCG-R” for “agonist, GLP-1R”, “with GCG-R” for “with GLP-1R”, “activity assay” for “activity test”, “evaluating GCG” for “evaluating GLP-1”
A CHO-K1 cell line stably expressing GCG-R was used. The stable cells were stimulated with agonists at different concentrations, and the relative luminescence units after stimulation at each concentration were measured to calculate the EC50 value of the agonist.

T2 sequence (P47871 26-477, species assumed): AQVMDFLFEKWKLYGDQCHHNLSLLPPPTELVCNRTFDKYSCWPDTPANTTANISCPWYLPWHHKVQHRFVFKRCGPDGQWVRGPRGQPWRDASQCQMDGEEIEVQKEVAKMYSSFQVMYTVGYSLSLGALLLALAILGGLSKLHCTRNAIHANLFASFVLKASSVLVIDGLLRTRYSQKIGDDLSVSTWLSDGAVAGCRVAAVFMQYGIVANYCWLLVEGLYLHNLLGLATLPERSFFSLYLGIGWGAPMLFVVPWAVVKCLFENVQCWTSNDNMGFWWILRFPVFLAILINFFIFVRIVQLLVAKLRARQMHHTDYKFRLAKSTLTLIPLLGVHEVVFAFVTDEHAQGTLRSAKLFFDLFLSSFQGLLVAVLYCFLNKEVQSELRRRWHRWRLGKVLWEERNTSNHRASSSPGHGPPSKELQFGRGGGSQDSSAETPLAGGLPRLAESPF
T1 sequence (P43220 24-463, species assumed): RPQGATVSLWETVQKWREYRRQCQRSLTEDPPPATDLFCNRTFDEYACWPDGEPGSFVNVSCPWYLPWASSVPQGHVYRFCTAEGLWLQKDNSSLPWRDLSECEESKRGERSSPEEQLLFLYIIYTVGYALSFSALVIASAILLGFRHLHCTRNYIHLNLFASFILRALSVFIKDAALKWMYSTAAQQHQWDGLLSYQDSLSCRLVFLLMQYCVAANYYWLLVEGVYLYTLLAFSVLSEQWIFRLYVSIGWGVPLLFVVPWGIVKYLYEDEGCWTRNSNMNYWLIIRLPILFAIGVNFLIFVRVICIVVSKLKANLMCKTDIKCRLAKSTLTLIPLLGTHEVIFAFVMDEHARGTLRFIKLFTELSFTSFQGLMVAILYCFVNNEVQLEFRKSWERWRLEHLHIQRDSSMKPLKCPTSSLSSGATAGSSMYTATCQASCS

| Compound | pEC50 [1] | pEC50 [2] |
| --- | --- | --- |
| CC(C)C[C@H](NC(=O)[C@H](CC(C)C)NC(=O)[C@H](Cc1c[nH]c2ccccc12)NC(=O)[C@H](CCC(=O)O)NC(=O)[C@@H](NC(=O)[C@H](Cc1ccccc1)NC(=O)[C@H](CCC(=O)O)NC(=O)[C@H](CCCCNC(=O)COCCOCCOCCOCCOCCNC(=O)CCCC[C@H](NC(=O)CCCCCCCCCCCCCCCCCCC(=O)O)C(=O)O)NC(=O)[C@H](C)NC(=O)[C@H](CCCCN)NC(=O)[C@H](CCCCN)NC(=O)[C@H](CCC(=O)O)NC(=O)[C@H](CC(=O)O)NC(=O)[C@H](CC(C)C)NC(=O)[C@H](Cc1ccc(O)cc1)NC(=O)[C@H](CCCCN)NC(=O)[C@H](CO)NC(=O)[C@H](Cc1ccc(O)cc1)NC(=O)[C@H](CC(=O)O)NC(=O)[C@H](CO)NC(=O)[C@@H](NC(=O)C(C)(Cc1ccccc1)NC(=O)[C@@H](NC(=O)CNC(=O)[C@H](CCC(N)=O)NC(=O)C(C)(C)NC(=O)[C@@H](N)Cc1c[nH]cn1)[C@@H](C)O)[C@@H](C)O)C(C)C)C(=O)N[C@@H](CCC(=O)O)C(=O)NCCCCC(=O)N1CCC[C@H]1C(=O)N[C@@H](CO)C(=O)N[C@@H](CO)C(=O)NCC(=O)N[C@@H](C)C(=O)N1CCC[C@H]1C(=O)N1CCC[C@H]1C(=O)N1CCC[C@H]1C(=O)N[C@@H](CO)C(N)=O (stereo partly drawn) [Compound 7] | 10.04 | 8.64 |
| CC(C)C[C@H](NC(=O)[C@H](CC(C)C)NC(=O)[C@H](Cc1c[nH]c2ccccc12)NC(=O)[C@H](CCC(=O)O)NC(=O)[C@@H](NC(=O)[C@H](Cc1ccccc1)NC(=O)[C@H](CCC(=O)O)NC(=O)[C@H](CCCCNC(=O)COCCOCCOCCOCCOCCNC(=O)CCCCC[C@H](NC(=O)CCCCCCCCCCCCCCCCCCC(=O)O)C(=O)O)NC(=O)[C@H](C)NC(=O)[C@H](CCCCN)NC(=O)[C@H](CCCCN)NC(=O)[C@H](CCC(=O)O)NC(=O)[C@H](CC(=O)O)NC(=O)[C@H](CC(C)C)NC(=O)[C@H](Cc1ccc(O)cc1)NC(=O)[C@H](CCCCN)NC(=O)[C@H](CO)NC(=O)[C@H](Cc1ccc(O)cc1)NC(=O)[C@H](CC(=O)O)NC(=O)[C@H](CO)NC(=O)[C@@H](NC(=O)C(C)(Cc1ccccc1)NC(=O)[C@@H](NC(=O)CNC(=O)[C@H](CCC(N)=O)NC(=O)C(C)(C)NC(=O)[C@@H](N)Cc1c[nH]cn1)[C@@H](C)O)[C@@H](C)O)C(C)C)C(=O)N[C@@H](CCC(=O)O)C(=O)NCCCCC(=O)N1CCC[C@H]1C(=O)N[C@@H](CO)C(=O)N[C@@H](CO)C(=O)NCC(=O)N[C@@H](C)C(=O)N1CCC[C@H]1C(=O)N1CCC[C@H]1C(=O)N1CCC[C@H]1C(=O)N[C@@H](CO)C(N)=O (stereo partly drawn) [Compound 8] | 9.98 | 8.59 |
| CC(C)C[C@H](NC(=O)[C@H](CC(C)C)NC(=O)[C@H](Cc1c[nH]c2ccccc12)NC(=O)[C@H](CCC(=O)O)NC(=O)[C@@H](NC(=O)[C@H](Cc1ccccc1)NC(=O)[C@H](CCC(=O)O)NC(=O)[C@H](CCCCNC(=O)COCCOCCOCCOCCOCCNC(=O)CCCC[C@H](NC(=O)CCCCCCCCCCCCCCCCCCC(=O)O)C(=O)O)NC(=O)[C@H](C)NC(=O)[C@H](CCCCN)NC(=O)[C@H](CCCCN)NC(=O)[C@H](CCC(=O)O)NC(=O)[C@H](CC(=O)O)NC(=O)[C@H](CC(C)C)NC(=O)[C@H](Cc1ccc(O)cc1)NC(=O)[C@H](CCCCN)NC(=O)[C@H](CO)NC(=O)[C@H](Cc1ccc(O)cc1)NC(=O)[C@H](CC(=O)O)NC(=O)[C@H](CO)NC(=O)[C@@H](NC(=O)C(C)(Cc1ccccc1F)NC(=O)[C@@H](NC(=O)CNC(=O)[C@H](CCC(N)=O)NC(=O)C(C)(C)NC(=O)[C@@H](N)Cc1c[nH]cn1)[C@@H](C)O)[C@@H](C)O)C(C)C)C(=O)N[C@@H](CCC(=O)O)C(=O)NCCCCC(=O)N1CCC[C@H]1C(=O)N[C@@H](CO)C(=O)N[C@@H](CO)C(=O)NCC(=O)N[C@@H](C)C(=O)N1CCC[C@H]1C(=O)N1CCC[C@H]1C(=O)N1CCC[C@H]1C(=O)N[C@@H](CO)C(N)=O (stereo partly drawn) [Compound 11] | 10.06 | 8.82 |
| CC(C)C[C@H](NC(=O)[C@H](CC(C)C)NC(=O)[C@H](Cc1c[nH]c2ccccc12)NC(=O)[C@H](CCC(=O)O)NC(=O)[C@@H](NC(=O)[C@H](Cc1ccccc1)NC(=O)[C@H](CCC(=O)O)NC(=O)[C@H](CCCCNC(=O)COCCOCCOCCOCCOCCNC(=O)CCCCC[C@H](NC(=O)CCCCCCCCCCCCCCCCCCC(=O)O)C(=O)O)NC(=O)[C@H](C)NC(=O)[C@H](CCCCN)NC(=O)[C@H](CCCCN)NC(=O)[C@H](CCC(=O)O)NC(=O)[C@H](CC(=O)O)NC(=O)[C@H](CC(C)C)NC(=O)[C@H](Cc1ccc(O)cc1)NC(=O)[C@H](CCCCN)NC(=O)[C@H](CO)NC(=O)[C@H](Cc1ccc(O)cc1)NC(=O)[C@H](CC(=O)O)NC(=O)[C@H](CO)NC(=O)[C@@H](NC(=O)C(C)(Cc1ccccc1F)NC(=O)[C@@H](NC(=O)CNC(=O)[C@H](CCC(N)=O)NC(=O)C(C)(C)NC(=O)[C@@H](N)Cc1c[nH]cn1)[C@@H](C)O)[C@@H](C)O)C(C)C)C(=O)N[C@@H](CCC(=O)O)C(=O)NCCCCC(=O)N1CCC[C@H]1C(=O)N[C@@H](CO)C(=O)N[C@@H](CO)C(=O)NCC(=O)N[C@@H](C)C(=O)N1CCC[C@H]1C(=O)N1CCC[C@H]1C(=O)N1CCC[C@H]1C(=O)N[C@@H](CO)C(N)=O (stereo partly drawn) [Compound 12] | 10.02 | 8.74 |
| CC(C)C[C@H](NC(=O)[C@H](CC(C)C)NC(=O)[C@H](Cc1c[nH]c2ccccc12)NC(=O)[C@H](CCC(=O)O)NC(=O)[C@@H](NC(=O)[C@H](Cc1ccccc1)NC(=O)[C@H](CCC(=O)O)NC(=O)[C@H](CCCCNC(=O)COCCOCCNC(=O)COCCOCCNC(=O)CC[C@H](NC(=O)CCCCCCCCCCCCCCCCCCC(=O)O)C(=O)O)NC(=O)[C@H](C)NC(=O)[C@H](CCCCN)NC(=O)[C@H](CCCCN)NC(=O)[C@H](CCC(=O)O)NC(=O)[C@H](CC(=O)O)NC(=O)[C@H](CC(C)C)NC(=O)[C@H](Cc1ccc(O)cc1)NC(=O)[C@H](CCCCN)NC(=O)[C@H](CO)NC(=O)[C@H](Cc1ccc(O)cc1)NC(=O)[C@H](CC(=O)O)NC(=O)[C@H](CO)NC(=O)[C@@H](NC(=O)C(C)(Cc1ccccc1)NC(=O)[C@@H](NC(=O)CNC(=O)[C@H](CCC(N)=O)NC(=O)C(C)(C)NC(=O)[C@@H](N)Cc1c[nH]cn1)[C@@H](C)O)[C@@H](C)O)C(C)C)C(=O)N[C@@H](CCC(=O)O)C(=O)NCCCCC(=O)N1CCC[C@H]1C(=O)N[C@@H](CO)C(=O)N[C@@H](CO)C(=O)NCC(=O)N[C@@H](C)C(=O)N1CCC[C@H]1C(=O)N1CCC[C@H]1C(=O)N1CCC[C@H]1C(=O)N[C@@H](CO)C(N)=O (stereo partly drawn) [Compound 14] | 10.06 | 8.60 |
| CC(C)C[C@H](NC(=O)[C@H](CC(C)C)NC(=O)[C@H](Cc1c[nH]c2ccccc12)NC(=O)[C@H](CCC(=O)O)NC(=O)[C@@H](NC(=O)[C@H](Cc1ccccc1)NC(=O)[C@H](CCC(=O)O)NC(=O)[C@H](CCCCNC(=O)COCCOCCNC(=O)COCCOCCNC(=O)CC[C@H](NC(=O)CCCCCCCCCCCCCCCCCCC(=O)O)C(=O)O)NC(=O)[C@H](C)NC(=O)[C@H](CCCCN)NC(=O)[C@H](CCCCN)NC(=O)[C@H](CCC(=O)O)NC(=O)[C@H](CC(=O)O)NC(=O)[C@H](CC(C)C)NC(=O)[C@H](Cc1ccc(O)cc1)NC(=O)[C@H](CCCCN)NC(=O)[C@H](CO)NC(=O)[C@H](Cc1ccc(O)cc1)NC(=O)[C@H](CC(=O)O)NC(=O)[C@H](CO)NC(=O)[C@@H](NC(=O)C(C)(Cc1ccccc1F)NC(=O)[C@@H](NC(=O)CNC(=O)[C@H](CCC(N)=O)NC(=O)C(C)(C)NC(=O)[C@@H](N)Cc1c[nH]cn1)[C@@H](C)O)[C@@H](C)O)C(C)C)C(=O)N[C@@H](CCC(=O)O)C(=O)NCCCCC(=O)N1CCC[C@H]1C(=O)N[C@@H](CO)C(=O)N[C@@H](CO)C(=O)NCC(=O)N[C@@H](C)C(=O)N1CCC[C@H]1C(=O)N1CCC[C@H]1C(=O)N1CCC[C@H]1C(=O)N[C@@H](CO)C(N)=O (stereo partly drawn) [Compound 15] | 10.08 | 8.74 |
